Test results taken from ChEMBL document CHEMBL3885881, “DrugMatrix”.

Species: Rattus norvegicus
Test: DrugMatrix - Regimen: Daily Repeat
Assay type: toxicity, organism-based, Sprague-Dawley
Parameters: regimen Daily Repeat, gender Male, age 6-8 weeks
Conditions: in vivo, po, route oral GAVAGE, vehicle 100 % SALINE; for ABSOLUTE BASOPHIL / ABSOLUTE EOSINOPHIL / ABSOLUTE LYMPHOCYTE / ABSOLUTE MONOCYTE / BASOPHIL / EOSINOPHIL / ERYTHROCYTE COUNT / HEMATOCRIT / HEMOGLOBIN / LEUKOCYTE COUNT / LYMPHOCYTE / MEAN CORPUSCULAR HEMOGLOBIN / MEAN CORPUSCULAR HEMOGLOBIN CONCENTRATION / MEAN CORPUSCULAR VOLUME / MONOCYTE / NEUTROPHIL / PLATELET COUNT: tissue Blood; for ALANINE AMINOTRANSFERASE / ALBUMIN / ALKALINE PHOSPHATASE / ASPARTATE AMINOTRANSFERASE / BLOOD UREA NITROGEN / CARBON DIOXIDE / CHLORIDE / CHOLESTEROL / CREATINE PHOSPHOKINASE / CREATININE / GLUCOSE / LACTATE DEHYDROGENASE / LIPASE / PHOSPHORUS / POTASSIUM / SODIUM / TOTAL BILIRUBIN / TOTAL PROTEIN / URIC ACID: tissue Plasma
[1] = 0 mg/kg, 72 h, dose level Control, time 3 day
[2] = 0 mg/kg, 120 h, dose level Control, time 5 day
[3] = 0 mg/kg, […], dose level Control, time 14 day
[4] = […], 72 h, dose 7.5 mg/Kg, dose level High, time 3 day
[5] = […], 120 h, dose 7.5 mg/Kg, dose level High, time 5 day

Nc1ncnc2c1ncn2[C@@H]1O[C@H](CO)[C@@H](O)[C@H]1F [2'-BETA-FLUORO-2',3'-DEOXYADENOSINE]
ABSOLUTE BASOPHIL [1]: 140 cells/µL | ABSOLUTE EOSINOPHIL [1]: 43.3 cells/µL | ABSOLUTE LYMPHOCYTE [1]: 7570 cells/µL | ABSOLUTE MONOCYTE [1]: 160 cells/µL | BASOPHIL [1]: 1.47% | EOSINOPHIL [1]: 0.47% | ERYTHROCYTE COUNT [1]: 6.68 x10E6/uL | HEMATOCRIT [1]: 44.33% | HEMOGLOBIN [1]: 14.43 G/DL | LEUKOCYTE COUNT [1]: 9.33 x10E3/uL | LYMPHOCYTE [1]: 81.23% | MEAN CORPUSCULAR HEMOGLOBIN [1]: 21.67 pg | MEAN CORPUSCULAR HEMOGLOBIN CONCENTRATION [1]: 32.6 G/DL | MEAN CORPUSCULAR VOLUME [1]: 66.43 fL | MONOCYTE [1]: 1.73% | NEUTROPHIL [1]: 14.7% | PLATELET COUNT [1]: 1341.67 x10E3/uL | ALANINE AMINOTRANSFERASE [1]: 31 u/L | ALBUMIN [1]: 4.03 G/DL | ALKALINE PHOSPHATASE [1]: 447 u/L | ASPARTATE AMINOTRANSFERASE [1]: 61.33 u/L | BLOOD UREA NITROGEN [1]: 15.67 mg/dL | CARBON DIOXIDE [1]: 43 mmol/L | CHLORIDE [1]: 103.33 MEQ/L | CHOLESTEROL [1]: 83.67 mg/dL | CREATINE PHOSPHOKINASE [1]: 174.33 u/L | CREATININE [1]: 0.4 mg/dL | GLUCOSE [1]: 173 mg/dL | LACTATE DEHYDROGENASE [1]: 87.67 u/L | LIPASE [1]: 17.33 u/L | PHOSPHORUS [1]: 10.27 mg/dL | POTASSIUM [1]: 6.47 MEQ/L | SODIUM [1]: 143.67 MEQ/L | TOTAL BILIRUBIN [1]: 0.37 mg/dL | TOTAL PROTEIN [1]: 6.63 G/DL | URIC ACID [1]: 1.03 mg/dL | ABSOLUTE BASOPHIL [2]: 53.3 cells/µL | ABSOLUTE EOSINOPHIL [2]: 210 cells/µL | ABSOLUTE LYMPHOCYTE [2]: 8220 cells/µL | ABSOLUTE MONOCYTE [2]: 200 cells/µL | BASOPHIL [2]: 0.53% | EOSINOPHIL [2]: 2.1% | ERYTHROCYTE COUNT [2]: 7 x10E6/uL | HEMATOCRIT [2]: 44% | HEMOGLOBIN [2]: 14.53 G/DL | LEUKOCYTE COUNT [2]: 10.44 x10E3/uL | LYMPHOCYTE [2]: 78.07% | MEAN CORPUSCULAR HEMOGLOBIN [2]: 20.77 pg | MEAN CORPUSCULAR HEMOGLOBIN CONCENTRATION [2]: 33 G/DL | MEAN CORPUSCULAR VOLUME [2]: 62.87 fL | MONOCYTE [2]: 1.87% | NEUTROPHIL [2]: 16.8% | PLATELET COUNT [2]: 1104.33 x10E3/uL | ALANINE AMINOTRANSFERASE [2]: 31.67 u/L | ALBUMIN [2]: 3.93 G/DL | ALKALINE PHOSPHATASE [2]: 394.67 u/L | ASPARTATE AMINOTRANSFERASE [2]: 65.67 u/L | BLOOD UREA NITROGEN [2]: 15.67 mg/dL | CARBON DIOXIDE [2]: 40.67 mmol/L | CHLORIDE [2]: 104.33 MEQ/L | CHOLESTEROL [2]: 66.33 mg/dL | CREATINE PHOSPHOKINASE [2]: 346.67 u/L | CREATININE [2]: 0.33 mg/dL | GLUCOSE [2]: 176.67 mg/dL | LACTATE DEHYDROGENASE [2]: 109 u/L | LIPASE [2]: 14.33 u/L | PHOSPHORUS [2]: 11.17 mg/dL | POTASSIUM [2]: 6.53 MEQ/L | SODIUM [2]: 146 MEQ/L | TOTAL BILIRUBIN [2]: 0.37 mg/dL | URIC ACID [2]: 0.97 mg/dL | ABSOLUTE BASOPHIL [3]: 93.3 cells/µL | ABSOLUTE EOSINOPHIL [3]: 80 cells/µL | ABSOLUTE LYMPHOCYTE [3]: 6890 cells/µL | ABSOLUTE MONOCYTE [3]: 170 cells/µL | BASOPHIL [3]: 1% | EOSINOPHIL [3]: 0.83% | ERYTHROCYTE COUNT [3]: 7.03 x10E6/uL | HEMATOCRIT [3]: 43.4% | HEMOGLOBIN [3]: 14.83 G/DL | LEUKOCYTE COUNT [3]: 8.94 x10E3/uL | LYMPHOCYTE [3]: 77.93% | MEAN CORPUSCULAR HEMOGLOBIN [3]: 21.1 pg | MEAN CORPUSCULAR HEMOGLOBIN CONCENTRATION [3]: 34.17 G/DL | MEAN CORPUSCULAR VOLUME [3]: 61.77 fL | MONOCYTE [3]: 1.33% | NEUTROPHIL [3]: 18% | PLATELET COUNT [3]: 1097.33 x10E3/uL | ALANINE AMINOTRANSFERASE [3]: 32 u/L | ALBUMIN [3]: 3.83 G/DL | ALKALINE PHOSPHATASE [3]: 334.67 u/L | ASPARTATE AMINOTRANSFERASE [3]: 69.33 u/L | BLOOD UREA NITROGEN [3]: 16 mg/dL | CARBON DIOXIDE [3]: 40 mmol/L | CHLORIDE [3]: 105.67 MEQ/L | CHOLESTEROL [3]: 70.33 mg/dL | CREATINE PHOSPHOKINASE [3]: 144.67 u/L | CREATININE [3]: 0.3 mg/dL | GLUCOSE [3]: 177.67 mg/dL | LACTATE DEHYDROGENASE [3]: 97.67 u/L | LIPASE [3]: 16.33 u/L | PHOSPHORUS [3]: 10.83 mg/dL | POTASSIUM [3]: 5.77 MEQ/L | SODIUM [3]: 143.33 MEQ/L | TOTAL BILIRUBIN [3]: 0.33 mg/dL | TOTAL PROTEIN [3]: 6.37 G/DL | URIC ACID [3]: 0.17 mg/dL | ABSOLUTE BASOPHIL [4]: 280 cells/µL | ABSOLUTE EOSINOPHIL [4]: 220 cells/µL | ABSOLUTE LYMPHOCYTE [4]: 9970 cells/µL | ABSOLUTE MONOCYTE [4]: 370 cells/µL | BASOPHIL [4]: 2.3% | EOSINOPHIL [4]: 2.07% | ERYTHROCYTE COUNT [4]: 6.92 x10E6/uL | HEMATOCRIT [4]: 45.73% | HEMOGLOBIN [4]: 14.7 G/DL | LEUKOCYTE COUNT [4]: 12.17 x10E3/uL | LYMPHOCYTE [4]: 81.03% | MEAN CORPUSCULAR HEMOGLOBIN [4]: 21.23 pg | MEAN CORPUSCULAR HEMOGLOBIN CONCENTRATION [4]: 32.1 G/DL | MEAN CORPUSCULAR VOLUME [4]: 66.07 fL | MONOCYTE [4]: 3.03% | NEUTROPHIL [4]: 11.03% | PLATELET COUNT [4]: 1214.67 x10E3/uL | ALANINE AMINOTRANSFERASE [4]: 43.33 u/L | ALBUMIN [4]: 3.93 G/DL | ALKALINE PHOSPHATASE [4]: 434.67 u/L | ASPARTATE AMINOTRANSFERASE [4]: 98.33 u/L | BLOOD UREA NITROGEN [4]: 16 mg/dL | CARBON DIOXIDE [4]: 43.33 mmol/L | CHLORIDE [4]: 103 MEQ/L | CHOLESTEROL [4]: 76.33 mg/dL | CREATINE PHOSPHOKINASE [4]: 214.67 u/L | CREATININE [4]: 0.43 mg/dL | GLUCOSE [4]: 167.67 mg/dL | LACTATE DEHYDROGENASE [4]: 99.33 u/L | LIPASE [4]: 12 u/L | PHOSPHORUS [4]: 11 mg/dL | POTASSIUM [4]: 7.1 MEQ/L | SODIUM [4]: 144 MEQ/L | TOTAL BILIRUBIN [4]: 0.33 mg/dL | TOTAL PROTEIN [4]: 6.37 G/DL | URIC ACID [4]: 0.97 mg/dL | ABSOLUTE BASOPHIL [5]: 86.7 cells/µL | ABSOLUTE EOSINOPHIL [5]: 120 cells/µL | ABSOLUTE LYMPHOCYTE [5]: 11100 cells/µL | ABSOLUTE MONOCYTE [5]: 270 cells/µL | BASOPHIL [5]: 0.63% | EOSINOPHIL [5]: 0.9% | ERYTHROCYTE COUNT [5]: 7.18 x10E6/uL | HEMATOCRIT [5]: 44.8% | HEMOGLOBIN [5]: 14.83 G/DL | LEUKOCYTE COUNT [5]: 13.05 x10E3/uL | LYMPHOCYTE [5]: 85.27% | MEAN CORPUSCULAR HEMOGLOBIN [5]: 20.7 pg | MEAN CORPUSCULAR HEMOGLOBIN CONCENTRATION [5]: 33.13 G/DL | MEAN CORPUSCULAR VOLUME [5]: 62.43 fL | MONOCYTE [5]: 2.07% | NEUTROPHIL [5]: 10.57% | PLATELET COUNT [5]: 1282.67 x10E3/uL | ALANINE AMINOTRANSFERASE [5]: 66 u/L | ALBUMIN [5]: 3.73 G/DL | ALKALINE PHOSPHATASE [5]: 389.33 u/L | ASPARTATE AMINOTRANSFERASE [5]: 161.67 u/L | BLOOD UREA NITROGEN [5]: 16 mg/dL | CARBON DIOXIDE [5]: 40 mmol/L | CHLORIDE [5]: 106.67 MEQ/L | CHOLESTEROL [5]: 69.67 mg/dL | CREATINE PHOSPHOKINASE [5]: 169 u/L | CREATININE [5]: 0.4 mg/dL | GLUCOSE [5]: 172.33 mg/dL | LACTATE DEHYDROGENASE [5]: 94.33 u/L | LIPASE [5]: 11.33 u/L | PHOSPHORUS [5]: 10.2 mg/dL | POTASSIUM [5]: 6.1 MEQ/L | SODIUM [5]: 147.33 MEQ/L | TOTAL BILIRUBIN [5]: 0.3 mg/dL | TOTAL PROTEIN [5]: 6.03 G/DL | URIC ACID [5]: 0.97 mg/dL
